ChEMBL document CHEMBL1144832, “An efficient one-pot synthesis of tethered cyclohexadiene enaminonitriles from methyl-ketones: an effective route to quinazolines” (Bioorg Med Chem Lett, 2008)

How the values were obtained:
Saccharomyces cerevisiae = assay: Antimicrobial activity against Saccharomyces cerevisiae; assay type: functional
Escherichia coli = assay: Antimicrobial activity against Escherichia coli; assay type: functional
Bacillus subtilis = assay: Antimicrobial activity against Bacillus subtilis; assay type: functional
Jurkat = assay: Cytotoxicity against human Jurkat cells; assay type: functional, cell-based
ScN2a = assay: Cytotoxicity against mouse ScN2a cells; assay type: functional

Row | Compound | MIC (Saccharomyces cerevisiae) | MIC (Escherichia coli) | MIC (Bacillus subtilis) | CC50 (Jurkat) | IC50 (Jurkat) | Activity (ScN2a)
1 | CC1(c2cccs2)CC(c2cccs2)=CC(N)=C1C#N (stereo unspecified) | ≥ 197 µM | ≥ 189 µM | ≥ 163 µM | 172 µM | – | –
2 | CC1(c2ccccc2)CC(c2ccccc2)=Cc2ncnc(N)c21 (stereo unspecified) | ≥ 197 µM | ≥ 189 µM | ≥ 163 µM | 17.6 µM | – | –
3 | CC1(c2ccc3ccccc3c2)CC(c2ccc3ccccc3c2)=CC(N)=C1C#N (stereo unspecified) | ≥ 197 µM | ≥ 189 µM | ≥ 163 µM | – | 19 µM | –
4 | CC1=C(/C=C/C2=Cc3ncnc(N)c3C(C)(/C=C/C3=C(C)CCCC3(C)C)C2)C(C)(C)CCC1 (stereo unspecified) | ≥ 197 µM | ≥ 189 µM | ≥ 163 µM | 12.8 µM | – | –
5 | CC1(c2ccc3ccccc3c2)CC(c2ccc3ccccc3c2)=Cc2ncnc(N)c21 (stereo unspecified) | ≥ 197 µM | ≥ 189 µM | ≥ 163 µM | 9.37 µM | – | –
6 | CC1(c2ccc(-c3ccccc3)cc2)CC(c2ccc(-c3ccccc3)cc2)=Cc2ncnc(N)c21 (stereo unspecified) | ≥ 197 µM | ≥ 189 µM | ≥ 163 µM | 10.4 µM | – | –
7 | CC1(c2ccc(Br)s2)CC(c2ccc(Br)s2)=Cc2ncnc(N)c21 (stereo unspecified) | ≥ 197 µM | ≥ 189 µM | ≥ 163 µM | 9.51 µM | – | –
8 | CC1=C(/C=C/C2=CC(N)=C(C#N)C(C)(/C=C/C3=C(C)CCCC3(C)C)C2)C(C)(C)CCC1 (stereo unspecified) | ≥ 197 µM | ≥ 189 µM | ≥ 163 µM | 12.7 µM | – | –
9 | N#Cc1c(N)nc(Sc2ccc(Cl)cc2)c(C#N)c1-c1cccs1 | – | – | – | – | – | 16 µM
10 | CC1(c2ccc(Br)s2)CC(c2ccc(Br)s2)=CC(N)=C1C#N (stereo unspecified) | ≥ 197 µM | ≥ 189 µM | ≥ 163 µM | 13.9 µM | – | –
11 | CC1(c2ccc(Br)cc2)CC(c2ccc(Br)cc2)=CC(N)=C1C#N (stereo unspecified) | ≥ 197 µM | ≥ 189 µM | ≥ 163 µM | 20.5 µM | – | –
12 | CC1(c2ccc(-c3ccccc3)cc2)CC(c2ccc(-c3ccccc3)cc2)=CC(N)=C1C#N (stereo unspecified) | ≥ 197 µM | ≥ 189 µM | ≥ 163 µM | 19.3 µM | – | –
13 | CCCCCCC1=CC(N)=C(C#N)C(C)(CCCCCC)C1 (stereo unspecified) | ≥ 197 µM | ≥ 189 µM | ≥ 163 µM | 46.8 µM | – | –
14 | CC1(c2ccccc2)CC(c2ccccc2)=CC(N)=C1C#N (stereo unspecified) | ≥ 197 µM | ≥ 189 µM | ≥ 163 µM | 15.1 µM | – | –
15 | N#Cc1c(N)nc(Sc2ccccc2N)c(C#N)c1-c1ccco1 | – | – | – | – | – | 18 µM
16 | CC1(c2ccc(Br)cc2)CC(c2ccc(Br)cc2)=Cc2ncnc(N)c21 (stereo unspecified) | ≥ 197 µM | ≥ 189 µM | ≥ 163 µM | 12.7 µM | – | –
17 | N#Cc1c(N)nc(Sc2ccc(Cl)cc2)c(C#N)c1-c1ccco1 | – | – | – | – | – | 19 µM
18 | CC1(c2ccc(F)cc2)CC(c2ccc(F)cc2)=CC(N)=C1C#N (stereo unspecified) | ≥ 197 µM | ≥ 189 µM | ≥ 163 µM | 19.4 µM | – | –
19 | CC1(c2cccs2)CC(c2cccs2)=Cc2ncnc(N)c21 (stereo unspecified) | ≥ 197 µM | ≥ 189 µM | ≥ 163 µM | 15.4 µM | – | –
20 | CC1(c2ccc(F)cc2)CC(c2ccc(F)cc2)=Cc2ncnc(N)c21 (stereo unspecified) | ≥ 197 µM | ≥ 189 µM | ≥ 163 µM | 3.24 µM | – | –
21 | N#Cc1c(N)nc(Sc2ccc(Cl)cc2)c(C#N)c1-c1ccccc1 | – | – | – | – | – | 35 µM
22 | CCCCCCC1=Cc2ncnc(N)c2C(C)(CCCCCC)C1 (stereo unspecified) | ≥ 197 µM | ≥ 189 µM | ≥ 163 µM | 12.6 µM | – | –
